Experimental data reported in patent US11820729B2 (Johnson & Johnson Consumer Inc., priority 2014, dated 2023).

Assays:
[1] = system: 16-hour salivary biofilm on pellicle coated hydroxyapatite pegs; assay: Prevention assay: prevention of bacterial attachment to pellicle coated hydroxyapatite pegs, ATP bioluminescence; type: cell-based; details: for ability to prevent bacterial attachment / preventing bacterial attachment the best: simple solution solvent base formulas (Table 11)
Protocol: The formulations in Examples 2-4, 6, 8 and 9 were prepared and test for prevention of bacterial attachment using the prevention assay. In this assay hydroxyapatite-coated polystyrene peg plate (96 pegs, N=8 per group) was exposed to saliva for one minute to form a pellicle at a temperature of 35 C. Then, for each formulation, eight pegs (N=8) were pre-treated for ten minutes with the formulation using an orbital shaker set to 500 RPM at room temperature. As a negative control, eight pegs (N=8) were pre-treated for ten minutes with sterile water. Next, a 16-hour salivary biofilm was grown on these polystyrene peg plates at a temperature of 35 C.
After all treatments were complete, the biofilm from each peg was neutralized and rinsed. The biofilm was harvested via sonication using a Q-Sonica Q700 Ultrasonic Liquid Processor with 431MP4-00 microplate horn Damper and 0.5:1 reverse gain booster (Q-Sonica, Newtown, Conn.). Using a Celsis Rapid Detection RapiScreen kit (Celsis International PLC, Chicago, Ill.), the bacteria were lysed with Celsis Luminex and then the adenosine triphosphate (ATP) from the lysed bacteria was measured using the bioluminescence marker Celcis Luminate and a Centro LB 960 Microplate Luminometer supplied by Berthold Technologies (Wildbad, Germany). Data were reported in log RLU (relative light units) where decreasing log RLUs indicated fewer viable bacteria remained on the biofilm substrate. The log RLUs for the prevention assay are shown on Tables 2, 4, 6, 10, 14, and 16.

[2] = system: S. mutans biofilm; assay: S. mutans single species kill assay (in-vitro biofilm model); type: cell-based; details: simple solution formulas (Table 13), 30 second treatment
Protocol: The formulations listed in Example 7 were prepared and tested using an in-vitro single species S. mutans biofilm model. A 24-hour S. mutans biofilm is grown on a polystyrene peg plate (96 pegs, N=6 per test group). The pegs were subsequently treated for thirty seconds with each of formulations H and I, as well as positive and negative controls. The treatment is applied as a single thirty (30) second treatment. The positive control is a commercially available essential oil mouth rinse. The negative control is sterile water. After treatment the biofilm is neutralized and rinsed. The biofilm is harvested via sonication using a Misonix Ultrasonic Liquid Processor (Farmingdale, N.Y.). Using a Celsis Rapid Detection RapiScreen kit (Celsis International PLC, Chicago), the bacteria are lysed with Celsis Luminex and then the adenosine triphosphate (ATP) from the lysed bacteria is measured using the bioluminescence marker LB960 Microplate Luminometer supplied by Berthold (Wildbad, Germany). Data are reported in log RLU (relative light units) where decreasing log RLUs indicates fewer viable bacteria remaining on the biofilm substrate.

Row | Structure (SMILES) | ability to prevent bacterial attachment [1] | preventing bacterial attachment the best [1] | also measured
1 | CCCCCCCCNC(=O)C(CCCNC(=N)N)NC(=O)CCCCCCC (stereo not shown) [Compound 21, N-(5-guanidino-1-(octylamino)-1-oxopentan-2-yl)octanamide] | have the ability to prevent bacterial attachment | preventing bacterial attachment the best | 
2 | CCCCCCCCCCCC(=O)NC(COP(=O)(O)O)C(=O)NCC (stereo not shown) [Compound 16, 2-dodecanamido-3-(ethylamino)-3-oxopropyl dihydrogen phosphate] | have the ability to prevent bacterial attachment |  | 
3 | CCCCCCCCCCCCCC(=O)NC(CCCNC(=N)N)C(=O)NCC (stereo not shown) [Compound 20, N-(1-(ethylamino)-5-guanidino-1-oxopentan-2-yl)tetradecanamide] | have the ability to prevent bacterial attachment |  | 
4 | CCCCCCCCCCCC(=O)NC(CCCCN)C(=O)NCC (stereo not shown) [Compound 11, N-[5-amino-1-(ethylcarbamoyl)pentyl]dodecanamide] | have the ability to prevent bacterial attachment |  | log reduction in S. mutans [2]: do not Result in More than a One Log Reduction in S. mutans; prevention of bacterial attachment in alcohol free full formulations ([1]; Table 15 formulations, water as the only solvent): Prevent Bacterial Attachment; prevention of bacterial attachment in alcohol-free full formulations ([1]; Table 17 formulations, water and propylene glycol as solvents): Prevent Bacterial Attachment
5 | CCCCCCCCCCCC(=O)NC(CCCN)C(=O)NCCCCCC (stereo not shown) [Compound 17, N-(5-amino-1-(hexylamino)-1-oxopentan-2-yl)dodecanamide] | have the ability to prevent bacterial attachment | preventing bacterial attachment the best | 
6 | CCCCCCCCCCCC(=O)NC(CCCNC(=N)N)C(=O)NCCCCCCCC (stereo not shown) [Compound 22, N-(5-guanidino-1-(octylamino)-1-oxopentan-2-yl)dodecanamide] | have the ability to prevent bacterial attachment | preventing bacterial attachment the best | 
7 | CCCCCCCCNC(=O)C(CCCN)NC(=O)CCCCCCC (stereo not shown) [Compound 19, N-(5-amino-1-(octylamino)-1-oxopentan-2-yl)octanamide] | have the ability to prevent bacterial attachment | preventing bacterial attachment the best | 
8 | CCCCCCCCCCCNC(=O)C(CCCN)NC(=O)CCCCCCC (stereo not shown) [Compound 18, N-(5-amino-1-oxo-1-(undecylamino)pentan-2-yl)octanamide] | have the ability to prevent bacterial attachment | preventing bacterial attachment the best | 
9 | CCCCCCCCCC(=O)NC(CCCNC(=N)N)C(=O)NCC (stereo not shown) [Compound 24, N-(1-(ethylamino)-5-guanidino-1-oxopentan-2-yl)decanamide] | have the ability to prevent bacterial attachment |  | 
10 | CCCCCCCCCCCNC(=O)C(CCCNC(=N)N)NC(=O)CCCCCCCCCCC (stereo not shown) [Compound 25, N-(5-guanidino-1-oxo-1-(undecylamino)pentan-2-yl)dodecanamide] | have the ability to prevent bacterial attachment |  | 
11 | CCCCCCCCCCCC(=O)NC(CCCNC(=N)N)C(=O)NCCCCCCCCCC (stereo not shown) [Compound 23, N-(1-(decylamino)-5-guanidino-1-oxopentan-2-yl)dodecanamide] | have the ability to prevent bacterial attachment |  | 
12 | CCCCCCCCCCCCCCCCCC(=O)NC(CCCNC(=N)N)C(=O)NC (stereo not shown) [Compound 7] |  |  | log reduction in S. mutans [2]: do not Result in More than a One Log Reduction in S. mutans
13 | CCCCCCCCCCCNC(=O)C(CCCNC(=N)N)NC(=O)CCCCCCC (stereo not shown) [Compound 26, N-(5-guanidino-1-oxo-1-(undecylamino)pentan-2-yl)octanamide] | have the ability to prevent bacterial attachment | preventing bacterial attachment the best | 
